Entries after “also recorded” stand apart in the source; their conditions may differ.
Tests used:
[1] = Body weight of tumor-bearing nude mice; type: in vivo, BALB/c naked mouse; conditions: 21 days
Method: (§1) Under aseptic conditions, tumor cells in the proliferation stage were taken. The cell concentration was adjusted after digestion, seeded at right armpit of nude mice, and the inoculated volume was 0.1 mL. Tumor diameter was measured with vernier caliper, after the tumor was grown to 200-300 mm^3, the tumor-bearing mice were selected, and randomly divided into 3 groups (n=4) according to the size of the tumors: negative control group, Anagrelide I (10 mg/kg), Anagrelide II (30 mg/kg). Each group was intragastric administrated, the day of administration was recorded as d1, the negative control group was given same amount of vehicle, and then the long and short diameters of tumor were measured twice a week, while the body weights of mice were weighed. At the 21th day of the administration, the animals were sacrificed and the tumor was dissected and weighed. Before the animals were sacrificed, eyeball was taken for blood sample, the number of white blood cell (WBC), red blood cell (RBC), concentration of hemoglobin (Hb) and number of platelet (PLT) were measured.

phosphodiesterase (PDE) = conditions: subsequent studies; cited from earlier work
[2] = system: human H4 transplantation tumor; assay: Human H4 transplantation tumor in nude mice, tumor growth; type: in vivo, BALB/c naked mouse; conditions: for anti-tumor effect (tumor volume, tumor growth): 21 days, vs vehicle control; for tumor weight: end of the experiment (day 21)
Method: as §1

HeLa cells = assay: Cell cycle distribution by PI staining and flow cytometry; type: cell-based, human; conditions: 100 nM, 24 hours
Method: (§2) Logarithmic growth phase cells were seeded in 6-well culture plate in 5×10^5/mL concentration, 1.5 mL of culture medium in each well, and cultured overnight. Different concentrations of drugs were added to stimulate for a certain time, and then the cells were collected into 1.5 mL EP tube. The cells were washed with cold PBS for 1-2 times, little PBS (about 200 ul) was added and blown to uniform. 1 mL 75% ethanol was pre-cooled (prepared with PBS), and cells was added dropwise into alcohol solution which was oscillated on shaker, fixed under 4° C. overnight. After 1000rpm centrifuged for 5 min, the supernatant was discarded and 1-2 mL PBS was added to wash twice. The cells were suspended with 0.5 mL RnaseA (1.0 mg/ml), and digested under 37° C. for 1 h. The cells were resuspended with 0.5 mL 25 ug/mL PI dye liquor, and were kept in dark place under 4° C. for 30 min. The cells were filtered with 300 mesh sieve, and the cell cycle distribution was analyzed with flow cytometry.
(§3) In order to determine whether Anagrelide had affected the cell cycle of tumor cells, SMMC7721, HeLa, SW1116 were taken as example to represent sensitive cells and relatively sensitive cells to detect the effect on cell cycle of Anagrelide by PI staining and flow cytometry (FIG. 4 and FIG. 5).

SMMC7721 cells = assay: as above; type: cell-based, human; conditions: 100 nM, 24 hours
Method: as §2, §3

SW1116 cells = assay: as above; type: cell-based, human; conditions: 100 nM, 24 hours
Method: as §2, §3

[3] = Blood routine test of tumor-bearing nude mice (WBC, RBC, Hb, PLT); type: in vivo, BALB/c naked mouse; conditions: day 21, vs vehicle control
Method: as §1

Wi38 cells = assay: MTT colorimetry, tumor cell growth/viability; type: cell-based, human; conditions: 50 μM, 72 hours
Method: (§4) Logarithmic growth phase cells were seeded in 96-well culture plate in appropriate density (100 μl in each well). After overnight cultivation, different concentrations of drugs were added and treated for 72 h, while three wells were set for each concentration. After treatment was completed, 20 μl/well of MTT (5 mg/ml in PBS) was added to each well and affected for 3-5 hours, the medium was suctioned out completely and 100 ul/well of DMSO was added, oscillated on decolorization shaker in dark place for 10 minutes until the Blue purple crystals formazan (formazan) was completely dissolved, the OD (Optical Density) value was detected with a microplate reader (detection wavelength: […]; reference wavelength: 650 nM). In blank group, culture medium only added without cells, and in control group, DMSO in the same volume as that for drug was added. Cell viability was calculated=(OD value of experimental group−OD value of control group)/(OD value of control group−OD value of blank group). Tumor cells from different tissue source were selected, and the concentration of Anagrelide was 1 μM and 50 μM, OD value was MTT detected after administrated for 72 hours, and the cell viability was calculated using cell viability=(administered group OD-blank group OD)/(control group OD-blank group OD)*100%, and was mapped by using GraphPadPrism 4 software.

U87-MG cells = assay: MTT colorimetry, tumor cell growth/viability; type: cell-based, human; conditions: 50 μM, 72 hours
Method: as §4

MDA-MB-231 cells = assay: MTT colorimetry, tumor cell growth/viability; type: cell-based, human; conditions: 50 μM, 72 hours
Method: as §4

DU145 cells = assay: MTT colorimetry, tumor cell growth/viability; type: cell-based, human; conditions: 50 μM, 72 hours
Method: as §4

H1299 cells = assay: MTT colorimetry, tumor cell growth/viability; type: cell-based, human; conditions: 50 μM, 72 hours
Method: as §4

MDA-MB-468 cells = assay: MTT colorimetry, tumor cell growth/viability; type: cell-based, human; conditions: 50 μM, 72 hours
Method: as §4

FHCC98 cells = assay: Cell cycle arrest (summary of experiments); type: cell-based, human
Method: as §2

H4 cells = assay: Cell cycle arrest (summary of experiments); type: cell-based, human
Method: as §2

Bel7404 cells = assay: Cell cycle arrest (summary of experiments); type: cell-based, human
Method: as §2

A498 cells = assay: Cell cycle arrest (summary of experiments); type: cell-based, human
Method: as §2

SMILES: O=C1CN2Cc3c(ccc(Cl)c3Cl)N=C2N1 [Anagrelide, 6,7-dichloro-1,5-dihydro-imidazo [2,1-b] quinazolin-2 (3H)-one]
- effect on animal body weight ([1]; 10 mg/kg intragastric): no significant difference from the negative control group
- effect on animal body weight ([1]; 30 mg/kg intragastric): no significant difference from the negative control group
- phosphodiesterase (PDE) activity (phosphodiesterase (PDE)): capable of inhibiting phosphodiesterase (PDE) activity
- anti-tumor effect (tumor volume, tumor growth) ([2]; 10 mg/kg intragastric): significant anti-tumor effect
- tumor weight ([2]; 10 mg/kg intragastric): significantly lower than that of the vehicle control group
- anti-tumor effect (tumor volume, tumor growth) ([2]; 30 mg/kg intragastric): significant anti-tumor effect
- tumor weight ([2]; 30 mg/kg intragastric): significantly lower than that of the vehicle control group; also recorded: less than that of Anagrelide I (10 mg/kg) group
- effect on cell cycle (cycle arrest) (HeLa cells): a significant G1, G2 cycle arrest was produced; also recorded: the cycle arrest was very strong
- effect on cell cycle (cycle arrest) (SMMC7721 cells): a significant G1, G2 cycle arrest was produced; also recorded: the cycle arrest was very strong
- effect on cell cycle (cycle arrest) (SW1116 cells): a relatively weaker effect of cycle arresting; also recorded: a significant cycle arrest phenomenon was produced
- blood routine test index (WBC, RBC, Hb, PLT) ([3]; 10 mg/kg intragastric): didn't show any significant decrease
- blood routine test index (WBC, RBC, Hb, PLT) ([3]; 30 mg/kg intragastric): didn't show any significant decrease
- inhibition of cell growth (Wi38 cells): inhibited their growth
- inhibition of cell growth (U87-MG cells): inhibited their growth
- inhibition of cell growth (MDA-MB-231 cells): inhibited their growth
- inhibition of cell growth (DU145 cells): inhibited their growth
- inhibition of cell growth (H1299 cells): inhibited their growth
- inhibition of cell growth (MDA-MB-468 cells): inhibited their growth
- effect on cell cycle (cycle arrest) (FHCC98 cells): the cycle arrest was very strong
- effect on cell cycle (cycle arrest) (H4 cells): the cycle arrest was very strong
- effect on cell cycle (cycle arrest) (Bel7404 cells): a significant cycle arrest phenomenon was produced
- effect on cell cycle (cycle arrest) (A498 cells): a significant cycle arrest phenomenon was produced

Reference: patent publication US10105362B2, “Anti-tumor use of anagrelide and derivatives thereof” (SHANGHAI INSTITUTE OF MATERIA MEDICA, CHINESE ACADEMY OF …, priority 2013, dated 2018)
